Experimental findings from patent US20230203059A1, “MACROCYCLIC JAK INHIBITOR AND USES THEREOF” (Biopolar Hongye (Guangdong) Pharmaceutical Co. Ltd., priority 2020, published 2023) are described below.

What all share (type): biochemical
For assay [1], the target named is JAK1 (Homo sapiens, UniProt P23458). Put plainly: JAK kinase activity, homogeneous time-resolved fluorescence (JAK1 reaction system). The following applies: ATP 2 μM, JAK1 protein 0.2 ng/μL; read-out: JAK 1 activity. Summed up: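 Kinase activity read as the 665 nm/615 nm time-resolved fluorescence ratio (320 nm excitation) after EDTA-containing antibody and XL-615 addition. Reaction ran 1 h at pH 7.0 (Hepes, MgCl2, DTT) with 0.2 ng/μL JAK1 and ATP at 2 μM. IC50 derived by Hill-slope fit.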
JAK1, sequence (P23458 whole entry): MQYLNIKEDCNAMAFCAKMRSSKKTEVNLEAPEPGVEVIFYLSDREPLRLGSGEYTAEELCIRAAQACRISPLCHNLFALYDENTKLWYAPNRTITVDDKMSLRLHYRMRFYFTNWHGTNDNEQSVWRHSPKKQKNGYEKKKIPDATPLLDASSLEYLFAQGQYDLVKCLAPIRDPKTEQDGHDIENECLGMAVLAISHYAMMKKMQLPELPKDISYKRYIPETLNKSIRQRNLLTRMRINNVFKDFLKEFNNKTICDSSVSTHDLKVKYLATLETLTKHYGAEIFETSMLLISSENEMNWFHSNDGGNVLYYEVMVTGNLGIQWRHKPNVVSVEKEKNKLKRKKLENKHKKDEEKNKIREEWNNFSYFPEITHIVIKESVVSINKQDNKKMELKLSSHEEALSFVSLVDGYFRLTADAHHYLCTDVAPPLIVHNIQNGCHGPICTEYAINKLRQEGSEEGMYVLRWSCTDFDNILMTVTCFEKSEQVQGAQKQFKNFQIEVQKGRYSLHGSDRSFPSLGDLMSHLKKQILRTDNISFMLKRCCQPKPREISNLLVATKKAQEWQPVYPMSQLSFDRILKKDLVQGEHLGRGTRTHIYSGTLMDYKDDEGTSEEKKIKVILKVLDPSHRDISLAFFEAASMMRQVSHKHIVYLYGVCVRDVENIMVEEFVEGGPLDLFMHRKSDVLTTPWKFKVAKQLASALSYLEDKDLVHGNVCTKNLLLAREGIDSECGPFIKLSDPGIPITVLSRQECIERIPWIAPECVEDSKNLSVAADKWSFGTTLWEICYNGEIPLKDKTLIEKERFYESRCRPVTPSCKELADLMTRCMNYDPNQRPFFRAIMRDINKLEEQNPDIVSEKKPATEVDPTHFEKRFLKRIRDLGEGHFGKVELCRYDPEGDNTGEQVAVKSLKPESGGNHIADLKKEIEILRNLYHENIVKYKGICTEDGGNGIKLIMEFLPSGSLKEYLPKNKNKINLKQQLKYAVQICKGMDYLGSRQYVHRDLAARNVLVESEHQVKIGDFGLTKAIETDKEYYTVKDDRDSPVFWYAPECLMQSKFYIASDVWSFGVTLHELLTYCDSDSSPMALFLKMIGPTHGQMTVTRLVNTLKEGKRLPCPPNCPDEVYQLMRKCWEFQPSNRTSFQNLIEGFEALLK

In assay [2] the target is TYK2 (Homo sapiens, UniProt P29597). In words: JAK kinase activity, homogeneous time-resolved fluorescence (TYK2 reaction system). To be noted: ATP 2 μM, TYK2 protein 0.2 ng/μL; read-out: TYK 2 activity. Summed up: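 Activity read as the 665 nm/615 nm ratio after adding EDTA-containing detection mix with anti-phospho-substrate antibody and XL-615. Beforehand, 0.2 ng/μL TYK2, 2 μM ATP, substrate and compound reacted 1 h in pH 7.0 Hepes buffer with MgCl2 and DTT. IC50 fitted with Hill-slope equation.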
TYK2, sequence (P29597 whole entry): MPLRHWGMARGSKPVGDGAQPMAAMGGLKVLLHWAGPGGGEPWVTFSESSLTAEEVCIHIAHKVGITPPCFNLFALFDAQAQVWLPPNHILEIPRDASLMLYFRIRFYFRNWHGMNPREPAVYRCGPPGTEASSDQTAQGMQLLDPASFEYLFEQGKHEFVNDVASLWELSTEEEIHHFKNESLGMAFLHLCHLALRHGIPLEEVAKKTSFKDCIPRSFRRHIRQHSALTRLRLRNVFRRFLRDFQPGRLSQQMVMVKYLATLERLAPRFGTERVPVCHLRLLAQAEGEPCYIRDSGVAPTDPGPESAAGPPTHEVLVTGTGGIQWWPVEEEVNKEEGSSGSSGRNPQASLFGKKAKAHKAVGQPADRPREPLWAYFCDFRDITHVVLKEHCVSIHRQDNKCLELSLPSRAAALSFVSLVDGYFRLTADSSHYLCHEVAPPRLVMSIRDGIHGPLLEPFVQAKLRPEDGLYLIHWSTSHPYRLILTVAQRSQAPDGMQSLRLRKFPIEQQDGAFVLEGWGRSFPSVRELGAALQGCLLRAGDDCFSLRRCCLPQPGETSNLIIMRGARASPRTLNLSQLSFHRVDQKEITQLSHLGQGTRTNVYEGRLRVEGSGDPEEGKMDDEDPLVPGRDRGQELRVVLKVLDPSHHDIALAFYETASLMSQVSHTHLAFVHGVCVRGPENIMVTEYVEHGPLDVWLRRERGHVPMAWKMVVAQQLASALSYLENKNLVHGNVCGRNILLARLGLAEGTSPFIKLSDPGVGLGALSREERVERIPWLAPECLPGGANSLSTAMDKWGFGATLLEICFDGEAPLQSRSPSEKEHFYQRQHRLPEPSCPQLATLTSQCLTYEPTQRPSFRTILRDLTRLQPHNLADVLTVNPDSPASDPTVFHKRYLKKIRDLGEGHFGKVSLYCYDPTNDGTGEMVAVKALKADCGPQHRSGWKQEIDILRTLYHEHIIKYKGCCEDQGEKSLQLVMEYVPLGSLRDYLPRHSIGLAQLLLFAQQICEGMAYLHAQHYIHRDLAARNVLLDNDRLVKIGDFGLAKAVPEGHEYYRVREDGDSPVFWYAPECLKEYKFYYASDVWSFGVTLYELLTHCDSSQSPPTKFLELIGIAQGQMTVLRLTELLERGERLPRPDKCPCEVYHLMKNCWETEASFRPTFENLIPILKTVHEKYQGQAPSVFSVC

For assay [3], the target named is JAK2 (Homo sapiens, UniProt O60674). Put plainly: JAK kinase activity, homogeneous time-resolved fluorescence (JAK2 reaction system). The following applies: ATP 2 μM, JAK2 protein 0.01 ng/μL. In outline: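 IC50 derived by Hill-equation fit of the 665/615 nm time-resolved fluorescence ratio after EDTA-containing detection mix with anti-phosphosubstrate antibody. Preceding 1 h reaction contained 2 μM ATP, 0.01 ng/μL JAK2, substrate, 50 mM Hepes pH 7.0, 5 mM MgCl2, 1 mM DTT.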
JAK2, sequence (O60674 whole entry): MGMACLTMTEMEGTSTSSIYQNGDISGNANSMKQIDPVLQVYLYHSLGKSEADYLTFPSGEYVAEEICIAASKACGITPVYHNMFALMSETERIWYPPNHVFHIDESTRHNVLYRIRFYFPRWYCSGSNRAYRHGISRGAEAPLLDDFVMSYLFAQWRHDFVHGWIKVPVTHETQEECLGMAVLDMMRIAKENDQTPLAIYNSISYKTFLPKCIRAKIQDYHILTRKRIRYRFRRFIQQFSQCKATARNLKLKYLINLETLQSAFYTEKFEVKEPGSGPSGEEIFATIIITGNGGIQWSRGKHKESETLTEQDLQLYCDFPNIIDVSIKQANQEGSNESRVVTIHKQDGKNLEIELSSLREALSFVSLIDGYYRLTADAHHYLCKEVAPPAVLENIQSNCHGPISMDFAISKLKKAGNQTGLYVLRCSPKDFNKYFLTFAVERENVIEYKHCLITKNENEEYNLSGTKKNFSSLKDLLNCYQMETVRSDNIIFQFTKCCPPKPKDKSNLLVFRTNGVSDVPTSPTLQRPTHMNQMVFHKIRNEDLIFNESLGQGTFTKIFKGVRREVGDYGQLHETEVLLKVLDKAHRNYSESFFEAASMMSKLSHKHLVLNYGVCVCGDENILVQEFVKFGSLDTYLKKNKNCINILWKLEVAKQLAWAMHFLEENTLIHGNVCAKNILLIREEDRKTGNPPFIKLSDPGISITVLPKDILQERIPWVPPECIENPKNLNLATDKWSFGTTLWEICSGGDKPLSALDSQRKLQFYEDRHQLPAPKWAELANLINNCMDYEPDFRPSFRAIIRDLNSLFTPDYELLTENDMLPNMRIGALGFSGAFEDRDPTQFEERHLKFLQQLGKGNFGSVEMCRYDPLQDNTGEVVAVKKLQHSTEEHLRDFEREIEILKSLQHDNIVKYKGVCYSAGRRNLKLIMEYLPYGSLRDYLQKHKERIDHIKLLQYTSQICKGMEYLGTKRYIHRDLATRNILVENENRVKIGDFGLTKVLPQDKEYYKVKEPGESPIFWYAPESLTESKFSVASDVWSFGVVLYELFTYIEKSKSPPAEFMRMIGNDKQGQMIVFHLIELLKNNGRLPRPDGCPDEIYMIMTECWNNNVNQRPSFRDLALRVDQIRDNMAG

For assay [4], the target named is T1, JAK3 (Homo sapiens, UniProt P52333).
T1 sequence (P52333 1-1124): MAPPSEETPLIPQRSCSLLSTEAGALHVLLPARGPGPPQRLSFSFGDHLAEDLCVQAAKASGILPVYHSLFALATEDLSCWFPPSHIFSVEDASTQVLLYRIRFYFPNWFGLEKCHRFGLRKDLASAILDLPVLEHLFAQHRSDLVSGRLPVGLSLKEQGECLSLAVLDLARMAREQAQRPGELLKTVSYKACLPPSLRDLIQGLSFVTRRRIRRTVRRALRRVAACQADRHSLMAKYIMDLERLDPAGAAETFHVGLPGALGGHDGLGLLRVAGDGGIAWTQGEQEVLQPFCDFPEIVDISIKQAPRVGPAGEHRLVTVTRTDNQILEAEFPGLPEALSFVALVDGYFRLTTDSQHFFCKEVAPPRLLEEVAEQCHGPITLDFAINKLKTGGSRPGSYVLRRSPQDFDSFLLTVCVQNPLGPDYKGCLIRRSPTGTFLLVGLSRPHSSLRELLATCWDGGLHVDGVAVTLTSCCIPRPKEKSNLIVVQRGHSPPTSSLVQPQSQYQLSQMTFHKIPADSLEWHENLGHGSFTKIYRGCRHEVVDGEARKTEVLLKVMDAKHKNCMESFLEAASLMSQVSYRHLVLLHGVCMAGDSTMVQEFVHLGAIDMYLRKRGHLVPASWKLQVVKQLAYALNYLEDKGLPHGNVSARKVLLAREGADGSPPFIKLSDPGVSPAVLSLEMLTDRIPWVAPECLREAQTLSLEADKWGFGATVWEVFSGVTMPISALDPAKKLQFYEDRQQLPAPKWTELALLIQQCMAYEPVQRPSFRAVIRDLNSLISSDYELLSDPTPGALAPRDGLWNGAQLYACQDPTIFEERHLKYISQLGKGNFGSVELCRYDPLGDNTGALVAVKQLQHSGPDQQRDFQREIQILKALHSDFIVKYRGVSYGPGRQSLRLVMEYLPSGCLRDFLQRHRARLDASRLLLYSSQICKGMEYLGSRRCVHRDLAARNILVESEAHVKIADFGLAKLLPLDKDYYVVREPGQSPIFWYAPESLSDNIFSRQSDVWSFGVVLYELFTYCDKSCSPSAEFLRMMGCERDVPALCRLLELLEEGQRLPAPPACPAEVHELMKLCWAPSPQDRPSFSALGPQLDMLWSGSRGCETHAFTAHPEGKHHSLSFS
In words: JAK kinase activity, homogeneous time-resolved fluorescence (JAK3 reaction system). To be noted: ATP 2 μM, JAK3 protein 0.04 ng/μL; read-out: JAK 3 activity.

Regarding `Nc1cc2ccc1-c1ccnc(n1)Nc1ccc(N3CCOCC3)c(c1)COCCCCCNC2=O` [Example 50, 1^2-amino-4^4-morpholin-6-oxa-3,12-diaza-2(4,2)-pyrimidina-1(1,4),4(1,3)-dibenzenacyclotridecaphan-13-one], the IC50 in assay [1] was 0.101 to 1 µM; in assay [2] it was 0.011 to 0.1 µM; in assay [3], 0.011 to 0.1 µM; in assay [4] it was < 0.01 µM.
Turning to `O=C1NCCCCOCc2cc(cc(N3CCOCC3)c2)Nc2nccc(n2)-c2ccc1cc2[N+](=O)[O-]` [Example 51, 1^2-nitro-4^5-morpholin-6-oxa-3,11-di-aza-2(4,2)-pyrimidina-1(1,4),4(1,3)-dibenzenacyclododecaphan-12-one], the IC50 in assay [1] is 1 to 10 µM; in assay [2], > 10 µM; in assay [3] it was 1 to 10 µM; in assay [4], 0.101 to 1 µM.
For `Nc1cc2ccc1-c1ccnc(n1)Nc1cc(cc(N3CCOCC3)c1)COCCCCNC2=O` [Example 52, 1^2-amino-4^5-morpholin-6-oxa-3,11-diaza-2(4,2)-pyrimidina-1(1,4),4(1,3)-dibenzenacyclododecaphan-12-one], the IC50 in assay [1] is 0.101 to 1 µM; in assay [2] it was 0.101 to 1 µM; in assay [3] it was 0.011 to 0.1 µM; in assay [4], < 0.01 µM.
`O=C1NCCCCOCc2cccc(c2)Nc2nccc(n2)-c2ccc1cc2[N+](=O)[O-]` [Example 53, 1^2-nitro-6-oxa-3,11-diaza-2(4,2)-py-rimidina-1(1,4),4(1,3)-dibenzenacyclo-dodecaphan-12-one]: the IC50 in assay [1] was 1 to 10 µM; in assay [2] it was > 10 µM; in assay [3] it was > 10 µM; in assay [4], 1 to 10 µM.
With `Nc1cc2ccc1-c1ccnc(n1)Nc1cccc(c1)COCCCCNC2=O` [Example 54, 1^2-amino-6-oxa-3,11-diaza-2(4,2)-py-rimidina-1(1,4),4(1,3)-dibenzena-cyclododecaphan-12-one], the IC50 lay in the range of 0.101 to 1 µM in assay [1], 1 to 10 µM in assay [2], 0.101 to 1 µM in assay [3] and 0.011 to 0.1 µM in assay [4].
`Nc1cc2ccc1-c1ccnc(n1)Nc1ccc(N3CCCCC3)c(c1)COCCCCNC2=O` [Example 55, 1^2-amino-4^4-(piperidin-1-)-6-oxa-3,11-diaza-2(4,2)-pyrimidina-1(1,4),4(1,3)-dibenzenacyclododecaphan-12-one]: the IC50 in assay [1] is 0.101 to 1 µM; in assay [2], 0.101 to 1 µM; in assay [3] it was 0.011 to 0.1 µM; in assay [4] it was < 0.01 µM.
With `O=C1NCCCCCCOCc2cc(ccc2N2CCOCC2)Nc2nccc(n2)-c2ccc1cc2[N+](=O)[O-]` [Example 56, 1^2-nitro-4^4-morpholin-6-oxa-3,13-di-aza-2(4,2)-pyrimidina-1(1,4),4(1,3)-dibenzenacyclotetradecaphan-14-one], the IC50 was > 10 µM in assay [1], > 10 µM in assay [2], 1 to 10 µM in assay [3] and 1 to 10 µM in assay [4].
As for `Nc1cc2ccc1-c1ccnc(n1)Nc1ccc(N3CCOCC3)c(c1)COCCCCCCNC2=O` [Example 57, 1^2-amino-4^4-morpholin-6-oxa-3,13-diaza-2(4,2)-pyrimidina-1(1,4),4(1,3)-dibenzenacyclotetradecaphan-14-one], the IC50 in assay [1] is 1 to 10 µM; in assay [2], 0.101 to 1 µM; in assay [3] it was 0.101 to 1 µM; in assay [4] it was 0.011 to 0.1 µM.
Consider `COc1cnc2nc1-c1ccc(c(F)c1)C(=O)NCCCCOCc1cc(ccc1N1CCOCC1)N2` [Example 58, 1^3-fluoro-2^5-methoxy-4^4-morpholin-6-oxa-3,11-diaza-2(4,2)-pyrimidina-1(1,4),4(1,3)-dibenzenacyclodode-caphan-12-one], for which the IC50 in assay [1] lay within 0.011 to 0.1 µM; in assay [2], 0.101 to 1 µM; in assay [3], 0.011 to 0.1 µM; in assay [4] it was 0.011 to 0.1 µM.
For `CN1CCN(c2ccc3cc2COCCCCNC(=O)c2ccc(c([N+](=O)[O-])c2)-c2ccnc(n2)N3)CC1` [Example 59, 1^2-nitro-4^4-(4-methylpiperazin-1-)-6-oxa-3,11-diaza-2(4,2)-pyrimidina-1(1,4),4(1,3)-dibenzenacyclododeca-phan-12-one], the IC50 was 1 to 10 µM in assay [1], > 10 µM in assay [2], 1 to 10 µM in assay [3] and 0.101 to 1 µM in assay [4].
For the compound `O=C1NCCCCOCc2cc(ccc2Cl)Nc2nccc(n2)-c2ccc1cc2[N+](=O)[O-]` [Example 60, 1^2-nitro-4^4-chloro-6-oxa-3,11-diaza-2(4,2)-pyrimidina-1(1,4),4(1,3)-di-benzenacyclododecaphan-12-one], the IC50 was in the range of 0.101 to 1 µM in assay [1], 1 to 10 µM in assay [2], 0.101 to 1 µM in assay [3] and 0.101 to 1 µM in assay [4].
In the case of `O=C1NCCCCOCc2cc(ccc2OC2CCOCC2)Nc2nccc(n2)-c2ccc1cc2[N+](=O)[O-]` [Example 61, 1^2-nitro-4^4-(2H-tetrahydropyran-4-oxo)-6-oxa-3,11-diaza-2(4,2)-pyrimi-dina-1(1,4),4(1,3)-dibenzenacyclo-dodecaphan-12-one], the IC50 in assay [1] is 1 to 10 µM; in assay [2], > 10 µM; in assay [3], 1 to 10 µM; in assay [4] it was 0.101 to 1 µM.
As for `Nc1cc2ccc1-c1ccnc(n1)Nc1ccc(OC3CCOCC3)c(c1)COCCCCNC2=O` [Example 63, 1^2-amino-4^4-(4-tetrahydropyranoxy)-6-oxa-3,11-diaza-2(4,2)-pyrimidina-1(1,4),4(1,3)-dibenzenacyclo-dodecaphan-12-one], the IC50 in assay [1] is 0.101 to 1 µM; in assay [2] it was 1 to 10 µM; in assay [3], 0.011 to 0.1 µM; in assay [4] it was < 0.01 µM.
As for `CC(C)Oc1ccc2cc1COCCCCNC(=O)c1ccc(c([N+](=O)[O-])c1)-c1ccnc(n1)N2` [Example 64, 4^4-isopropoxy-1^2-nitro-6-oxa-3,11-diaza-2(4,2)-pyrimidina-1(1,4),4(1,3)-dibenzenacyclododecaphan-12-one], the IC50 in assay [1] was 1 to 10 µM; in assay [2], > 10 µM; in assay [3], 0.101 to 1 µM; in assay [4] it was 0.101 to 1 µM.
As for `O=C1NCCCCOCc2cc(ccc2N2CCSCC2)Nc2nccc(n2)-c2ccc1cc2[N+](=O)[O-]` [Example 65, 1^2-nitro-4^4-thiomorpholin-6-oxa-3,11-diaza-2(4,2)-pyrimidina-1(1,4),4(1,3)-dibenzenacyclododecaphan-12-one], the IC50 in assay [1], in assay [2], in assay [3] and in assay [4] was 1 to 10 µM in each case.
In the case of `Nc1cc2ccc1-c1ccnc(n1)Nc1ccc(N3CCSCC3)c(c1)COCCCCNC2=O` [Example 66, 1^2-amino-4-thiomorpholin-6-oxa-3,11-diaza-2(4,2)-pyrimidina-1(1,4),4(1,3)-dibenzenacyclo-dodecaphan-12-one], the IC50 in assay [1] lay within 0.101 to 1 µM; in assay [2], 0.101 to 1 µM; in assay [3], 0.011 to 0.1 µM; in assay [4], 0.011 to 0.1 µM.
In the case of `CC(C)Oc1ccc2cc1COCCCCNC(=O)c1ccc(c(N)c1)-c1ccnc(n1)N2` [Example 67, 1^2-amino-4^4-isopropoxy-6-oxa-3,11-diaza-2(4,2)-pyrimidina-1(1,4),4(1,3)-dibenzenacyclododecaphan-12-one], the IC50 in assay [1] was 0.101 to 1 µM; in assay [2], 1 to 10 µM; in assay [3], 0.101 to 1 µM; in assay [4] it was < 0.01 µM.
